Test results reported in ChEMBL document CHEMBL3399955, “Synthesis of a new series of dithiocarbamates with effective human carbonic anhydrase inhibitory activity and antiglaucoma action” (Bioorg Med Chem, 2015).

Columns and labels:
Carbonic anhydrase 9 = Carbonic anhydrase 9 (Homo sapiens, UniProt Q16790); assay: Inhibition of human recombinant carbonic anhydrase 9 expressed in Escherichia coli pre-incubated for 15 mins by stopped-flow CO2 hydration assay
Homo sapiens [1] = species: Homo sapiens; assay: Reduction in intraocular pressure in patient with open-angle glaucoma; format: functional, Eye
Oryctolagus cuniculus [2] = assay: Antiglaucoma activity in New Zealand albino rabbit model of glaucoma assessed as reduction in intraocular pressure dosed as 2% eye drops immediately after injection of hypertonic saline measured 2 hrs post dose; format: functional
Homo sapiens [3] = species: Homo sapiens; assay: Reduction in intraocular pressure in glaucoma patient; format: functional, Eye
Oryctolagus cuniculus [4] = assay: Antiglaucoma activity in New Zealand albino rabbit model of glaucoma assessed as reduction in intraocular pressure dosed as 2% eye drops immediately after injection of hypertonic saline measured 1 hr post dose; format: functional

Structure (SMILES) | Ki (Carbonic anhydrase 9) | also measured
O=C(O)C1CCCCN1C(=S)S (centres undefined) | 72 nM | –
S=C(S)NC1CN2CCC1CC2 (centres undefined) | 93.5 nM | –
S=C(S)N[C@H]1CN2CCC1CC2 | 71.8 nM | –
S=C(S)N[C@@H]1CN2CCC1CC2 | 82.4 nM | –
S=C(S)N1CCCCC1 | 0.92 nM | –
O=C(O)C1CCCN(C(=S)S)C1 (centres undefined) | 67.1 nM | –
O=C(O)[C@@H]1CCCN(C(=S)S)C1 | 41.3 nM | –
O=C(O)[C@H]1CCCN(C(=S)S)C1 | 86.2 nM | –
O=C(O)C1CCN(C(=S)S)CC1 | 77.9 nM | –
CC1COCCN1C(=S)S (centres undefined) | 55.1 nM | –
O=C(CN1CCN(C(=S)S)CC1)NC1CCCCC1 | 79.9 nM | –
CC(=O)Nc1nnc(S(N)(=O)=O)s1 [ACETAZOLAMIDE] | – | inhibition (INH) (Homo sapiens [1]): 25%
CCN[C@H]1C[C@H](C)S(=O)(=O)c2sc(S(N)(=O)=O)cc21 [DORZOLAMIDE] | – | Activity (Oryctolagus cuniculus [2]): 3 mmHg; Activity (Homo sapiens [3]): 4 mmHg; Activity (Oryctolagus cuniculus [4]): 4 mmHg

More lines, in order of falling Ki (Carbonic anhydrase 9), values ahead:

Ki (Carbonic anhydrase 9) | Structure (SMILES) | also measured
37.9 nM | CN(C)CCNC(=S)S | –
25.1 nM | S=C(S)NCCc1ccccc1 | –
9.5 nM | CC(=O)NC1CCCN(C(=S)S)C1 (centres undefined) | –
7.6 nM | OC1CCCN(C(=S)S)C1 (centres undefined) | –
6.7 nM | O=C(O)C1COCCN1C(=S)S (centres undefined) | –
2.6 nM | OCCCCCNC(=S)S | –
0.97 nM | OCCCCNC(=S)S | –
0.91 nM | OCCCNC(=S)S | –
0.91 nM | NS(=O)(=O)c1ccc(CCNC(=S)S)cc1 | –
